Measured values taken from ChEMBL document CHEMBL4419178, “Yap1 inhibitors that target the interaction of yap1 with oct4” (2018).
Active and inactive are the calls of the source.

Tests used:
NCI-H1650 = assay: Inhibition of self-renewal capacity in cisplatin insensitive stem-like side-population cells of human NCI-H1650 cells assessed as reduction in number of spheres at 2 uM incubated for 5 days after 7 days cisplatin exposure by sphere formation assay; type: functional, cell-based
[1] = molecular target: Transcriptional coactivator YAP1 (Homo sapiens) (UniProt P46937); assay: Inhibition of YAP1 in human NCI-H1650 cells assessed as suppression of HK2 mRNA expression at 5 to 10 uM incubated for 72 hrs by RT-PCR method; type: cell-based
[2] = molecular target: Transcriptional coactivator YAP1 (Homo sapiens) (UniProt P46937); assay: Inhibition of YAP1 in human NCI-H1650 cells assessed as suppression of PDK2 mRNA expression at 5 to 10 uM incubated for 72 hrs by RT-PCR method; type: cell-based
[3] = molecular target: Transcriptional coactivator YAP1 (Homo sapiens) (UniProt P46937); assay: Inhibition of YAP1 in human NCI-H1703 cells assessed as suppression of HK2 mRNA expression at 5 to 10 uM incubated for 72 hrs by RT-PCR method; type: cell-based
[4] = molecular target: Transcriptional coactivator YAP1 (Homo sapiens) (UniProt P46937); assay: Inhibition of YAP1 in human NCI-H1703 cells assessed as suppression of PDK2 mRNA expression at 5 to 10 uM incubated for 72 hrs by RT-PCR method; type: cell-based
[5] = molecular target: Transcriptional coactivator YAP1 (Homo sapiens) (UniProt P46937); assay: Inhibition of YAP1 in human NCI-H146 cells assessed as suppression of HK2 mRNA expression at 5 to 10 uM incubated for 72 hrs by RT-PCR method; type: cell-based
[6] = molecular target: Transcriptional coactivator YAP1 (Homo sapiens) (UniProt P46937); assay: Inhibition of YAP1 in human NCI-H146 cells assessed as suppression of PDK2 mRNA expression at 5 to 10 uM incubated for 72 hrs by RT-PCR method; type: cell-based
[7] = molecular target: Transcriptional coactivator YAP1 (Homo sapiens) (UniProt P46937); assay: Inhibition of YAP1 in human NCI-H1650 cells assessed as suppression of PD-L1 mRNA expression at 5 to 10 uM incubated for 72 hrs by RT-PCR method; type: cell-based
[8] = molecular target: Transcriptional coactivator YAP1 (Homo sapiens) (UniProt P46937); assay: Inhibition of YAP1 in human NCI-H1703 cells assessed as suppression of PD-L1 mRNA expression at 5 to 10 uM incubated for 72 hrs by RT-PCR method; type: cell-based
[9] = molecular target: Transcriptional coactivator YAP1 (Homo sapiens) (UniProt P46937); assay: Inhibition of YAP1 in human NCI-H1650 cells assessed as reduction in Sox2 protein expression at 5 uM by Western blot analysis; type: cell-based
[10] = molecular target: Transcriptional coactivator YAP1 (Homo sapiens) (UniProt P46937); assay: Inhibition of YAP1 in human A549 cells assessed as reduction in Sox2 protein expression at 5 uM by Western blot analysis; type: cell-based
[11] = molecular target: Transcriptional coactivator YAP1 (Homo sapiens) (UniProt P46937); assay: Inhibition of YAP1 in human A549 cells assessed as suppression of CCL2 level by cytokine array assay; type: cell-based
[12] = molecular target: Transcriptional coactivator YAP1 (Homo sapiens) (UniProt P46937); assay: Inhibition of YAP1 in human A549 cells assessed as suppression of CXCL1 level by cytokine array assay; type: cell-based
[13] = molecular target: Transcriptional coactivator YAP1 (Homo sapiens) (UniProt P46937); assay: Inhibition of YAP1 in human A549 cells assessed as suppression of CXCL12 level by cytokine array assay; type: cell-based
[14] = molecular target: Transcriptional coactivator YAP1 (Homo sapiens) (UniProt P46937); assay: Inhibition of YAP1 in human A549 cells assessed as suppression of CD40L level by cytokine array assay; type: cell-based
[15] = molecular target: Transcriptional coactivator YAP1 (Homo sapiens) (UniProt P46937); assay: Inhibition of YAP1 in human A549 cells assessed as suppression of ICAM1 level by cytokine array assay; type: cell-based
[16] = molecular target: Transcriptional coactivator YAP1 (Homo sapiens) (UniProt P46937); assay: Inhibition of YAP1 in human A549 cells assessed as suppression of IL1alpha level by cytokine array assay; type: cell-based
[17] = molecular target: Transcriptional coactivator YAP1 (Homo sapiens) (UniProt P46937); assay: Inhibition of YAP1 in human A549 cells assessed as suppression of IL6 level by cytokine array assay; type: cell-based
[18] = molecular target: Transcriptional coactivator YAP1 (Homo sapiens) (UniProt P46937); assay: Inhibition of YAP1 in human A549 cells assessed as suppression of IL8 level by cytokine array assay; type: cell-based
[19] = molecular target: Transcriptional coactivator YAP1 (Homo sapiens) (UniProt P46937); assay: Inhibition of YAP1 in human A549 cells assessed as suppression of IL13 level by cytokine array assay; type: cell-based
[20] = molecular target: Transcriptional coactivator YAP1 (Homo sapiens) (UniProt P46937); assay: Inhibition of YAP1 in human A549 cells assessed as suppression of IL18 level by cytokine array assay; type: cell-based
[21] = molecular target: Transcriptional coactivator YAP1 (Homo sapiens) (UniProt P46937); assay: Inhibition of YAP1 in human A549 cells assessed as suppression of IL32-alpha level by cytokine array assay; type: cell-based
[22] = molecular target: Transcriptional coactivator YAP1 (Homo sapiens) (UniProt P46937); assay: Inhibition of YAP1 in human A549 cells assessed as suppression of MIF level by cytokine array assay; type: cell-based
[23] = molecular target: Transcriptional coactivator YAP1 (Homo sapiens) (UniProt P46937); assay: Inhibition of YAP1 in human A549 cells assessed as suppression of Serpine-E1 level by cytokine array assay; type: cell-based
[24] = molecular target: Transcriptional coactivator YAP1 (Homo sapiens) (UniProt P46937); assay: Inhibition of YAP1 in human A549 cells assessed as suppression of CCL2 level in presence of cancer associated fibroblasts by cytokine array assay; type: cell-based
[25] = molecular target: Transcriptional coactivator YAP1 (Homo sapiens) (UniProt P46937); assay: Inhibition of YAP1 in human A549 cells assessed as suppression of CXCL12 level in presence of cancer associated fibroblasts by cytokine array assay; type: cell-based
[26] = molecular target: Transcriptional coactivator YAP1 (Homo sapiens) (UniProt P46937); assay: Inhibition of YAP1 in human A549 cells assessed as suppression of ICAM1 level in presence of cancer associated fibroblasts by cytokine array assay; type: cell-based
[27] = molecular target: Transcriptional coactivator YAP1 (Homo sapiens) (UniProt P46937); assay: Inhibition of YAP1 in human A549 cells assessed as suppression of IL6 level in presence of cancer associated fibroblasts by cytokine array assay; type: cell-based
[28] = molecular target: Transcriptional coactivator YAP1 (Homo sapiens) (UniProt P46937); assay: Inhibition of YAP1 in human A549 cells assessed as suppression of IL8 level in presence of cancer associated fibroblasts by cytokine array assay; type: cell-based
[29] = molecular target: Transcriptional coactivator YAP1 (Homo sapiens) (UniProt P46937); assay: Inhibition of YAP1 in human A549 cells assessed as suppression of MIF level in presence of cancer associated fibroblasts by cytokine array assay; type: cell-based
[30] = molecular target: Transcriptional coactivator YAP1 (Homo sapiens) (UniProt P46937); assay: Inhibition of YAP1 in human A549 cells assessed as suppression of Serpine-E1 level in presence of cancer associated fibroblasts by cytokine array assay; type: cell-based

Measured: inhibition

Transcriptional coactivator YAP1 (Homo sapiens), sequence (P46937 whole entry): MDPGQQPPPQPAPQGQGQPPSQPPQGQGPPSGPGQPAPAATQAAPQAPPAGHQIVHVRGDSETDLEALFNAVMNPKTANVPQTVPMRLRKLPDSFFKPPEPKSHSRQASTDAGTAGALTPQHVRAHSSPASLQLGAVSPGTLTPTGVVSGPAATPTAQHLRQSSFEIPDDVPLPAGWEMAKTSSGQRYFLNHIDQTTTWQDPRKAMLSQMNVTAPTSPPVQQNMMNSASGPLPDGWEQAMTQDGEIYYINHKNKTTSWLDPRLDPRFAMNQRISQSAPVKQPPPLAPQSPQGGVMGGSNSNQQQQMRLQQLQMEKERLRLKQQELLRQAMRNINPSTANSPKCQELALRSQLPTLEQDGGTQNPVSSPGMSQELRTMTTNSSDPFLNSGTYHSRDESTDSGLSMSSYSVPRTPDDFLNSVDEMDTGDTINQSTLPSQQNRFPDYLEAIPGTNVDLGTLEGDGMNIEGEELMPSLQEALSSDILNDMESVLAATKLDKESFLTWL

COC(=O)[C@H](Cc1ccc(OCc2ccccc2)cc1)NC(=O)CC1CCN(C(=O)CCc2ccc(Cl)c(Cl)c2)CC1
active: NCI-H1650 | [1] | [2] | [3] | [4] | [5] | [6] | [7] | [8]

COC(=O)[C@H](Cc1ccc(OCc2ccccc2)cc1)NC(=O)CC1CCN(C(=O)CCc2ccc(C#N)cc2)CC1
not listed: NCI-H1650 | [1] | [2] | [3] | [4] | [5] | [6] | [7] | [8]
active: all other assays above
